Here are results for eleven molecules from US11933781B2, “Fibrosis model and methods of use thereof” (The Regents of the University of Colorado, priority 2020, dated 2024).

Holding throughout (type): cell-based, human
In assay [1] the test system is IPF HBECs. Put plainly: Induction of the unjammed-to-jammed transition (UJT) in IPF HBECs. The note with it: day 14 IPF HBECs. From the text: (§1) Epithelial Cell Culture: Primary human bronchial epithelial cells (HBECs) were obtained from two sources (1) provided by Dr. Hong Wei Chu at National Jewish Health, or (2) lung transplant collection at the University of Colorado Hospital (IRB protocol: 11-1664 or 18-0572). Epithelial cells from bronchial brushes or CT-guided dissection were expanded to passage 2 before being cultured at air liquid interface (ALI). Control (N=11), IPF (N=6), and COPD (N=3) were age matched and controls had no history of chronic lung disease (Table 1). Cells were seeded on 24-Transwell plates (Corning, Corning, New York, 3470) coated with type I collagen (Corning, Corning, New York, 354236) and maintained under submerged conditions for five to seven days until the cells reached confluence. Culture media was a 1:1 mixture of DMEM and BEBM (Lonza, Basel, Switzerland, CC170) supplemented with retinoic acid (Sigma-Aldrich, Germany, R-2625) nystatin (Sigma-Aldrich, Germany N1638), and bovine serum albumin (FisherSci, Thermo Fisher Scientific, Waltham, Massachusetts BP9703100). Once confluent, apical media was removed and maintained at ALI. HBECs began recapitulating the in vivo airway, with production of mucus (6-9 days after establishing ALI) and development of a pseudostratified epithelium. Cells were switched to a starvation media (lacking supplemental epidermal growth factor, hydrocortisone, and bovine pituitary extract) 24 hours prior to experimentation.
(§2) For inhibitor, activator, and ligand treatments HBECs were cultured in a starvation media in the absence of EGF, hydrocortisone, and bovine pituitary extract for 24 hours prior to treatment initiation. Cells were then treated for 2-4 hours (with exception of AREG neutralizing antibody which was maintained in the culture media), media was aspirated, the wells were washed with warm PBS and then replaced with fresh starvation media without inhibitor/activator/ligand present, and subsequently imaged. For experiments that required subsequent media changes (96 hour) cells fresh starvation media was changed 48 hours afterwards.
(§3) Live Cell Imaging and Dynamics Measurement: To assess cellular dynamics, time-lapse microscopy and subsequent analysis were completed. Two imaging schemes were utilized: (1) images were taken every 5 minutes for 200 minutes during HBEC differentiation; (2) images were taken every 20 minutes for 48, 96, or 144 hours after HBEC experimental intervention. Phase contrast images were acquired on a Keyence BZ-X810 with a stage incubator (37° C., 5% CO2). Dynamic analysis followed previously published workflows (10-12, 22). Briefly, using phase contrast images instantaneous velocities were mapped by particle image velocimetry utilizing open source PIVLab on MATLAB. Velocity fields were obtained with 2 passes (64×64 and 32×32 pixel size interrogation window with 50% overlap) with a pixel size of 0.75488 μm using a Fast Fourier Transformation method. Trajectories from the PIV were seeded onto a grid and obtained via forward-integration of subsequent fields. These values were then used to determine mean-squared-displacement (MSD) and self-overlap order parameter (Q): MSD(Δt)= ? ri(t+Δt)−ri(t)|2 ? and Q(Δt)=N−1ΣwiNi=1 as previously published. Instantaneous room mean squared velocity (VRMS) of the monolayer was obtained as previously published: VRMS(t)=√1MΣ ? |v(t)2 ? jMj=1
(§4) Cell Shape Analysis: Cell shape measurements were achieved via cell border delineation by F-actin immunofluorescence. Images were segmented utilizing SeedWater Segmenter. Similar to previously published workflows, we segmented images which were subsequently analyzed in ImageJ for the shape index (q=Perimeter√Area) and aspect ratio (major and minor axis) for all cells within a given field of view. For each experimental condition an n≥3 was used with at least 3 independent wells per donor per treatment condition. […]

Assay [2] deals with IPF HBECs. Put plainly: Gene expression of ERBB receptors, YAP target genes and MUC5B in IPF HBECs. The conditions noted are these: IPF HBECs after inhibition. Here is the method: Quantitative RT-PCR Analysis: Total RNA was extracted using RNeasy® Mini kit (Qiagen, Hilden, Germany) and quantified by NanoDrop™ (ThermoFisher Scientific™, Waltham, Massachusetts).Reverse transcription was completed using the High Capacity cDNA Reverse Transcription Kit (Applied Biosystems™, Thermo Fisher Scientific™, Waltham, Massachusetts). Gene expression was analyzed by using TaqMan® Advanced Master Mix (Thermo Fisher Scientific™, Waltham, Massachusetts and TaqMan® assays. They were subsequently run in triplicate on the ViiA™ 7 Real-Time machine (Thermo Fisher Scientific™, Waltham, Massachusetts). Primer IDs were: β-ACTIN, Hs01060665_g1; MUC5B, Hs00861595_m1; MUC5AC, Hs01365616_m1; EGFR, Hs0176090_m1; ERBB2, Hs01001580_m1; ZEB1, Hs00232783_m1; SNAI1, Hs00195591_m1; VIM, Hs00185584_m1; CTGF, Hs00170014_m1; AREG, Hs00950669_m1; FN1, Hs01549976_m1; PDGFRA, Hs00998018_m1; PDGFA, Hs00234994_m1; PDGFRB, Hs01019589_m1; PDGFB, Hs00966522_m1; TGFBRI, Hs00610320_m1; TGFBI, Hs00998133_m1; COL1A1, Hs00164004_m1; ACTA2, Hs00426835; MMP3, Hs00968305_m1; MMP9, Hs00957562_m1; TIMP1, Hs01092512_g1; and TIMP2, Hs00234278_m1.

Assay [3] relates to IPF HBECs. Nature of the assay: YAP immunofluorescence in IPF HBECs. The conditions noted are these: IPF HBECs 48 hours after treatment. The protocol:
(§5) Immunofluorescence staining: Cells were fixed with 4% paraformaldehyde in PBS with calcium and magnesium for 30 minutes at room temperature. Cells were then washed with PBS and subsequently permeabilized (Triton™-X, at 0.1%) and blocked with 5% bovine serum albumin in PBS for 1 hour at room temperature. Cells were then incubated for >16 hours at 4 degrees with primary antibodies. Primary antibodies were aspirated, and cells were washed with PBS+0.1% Tween-20 at room temperature. Cells were then incubated for 1 hour at room temperature with secondary antibodies (1:500) and/or Phalloidin-iFluor™ 488 1:2000. Cells were stained with 4′,6-diamidino-2-phenylindole at 1:20000 (BioLegend®, San Diego, California, 422801). Subsequently, transwell membranes, or hydrogels, were removed from the well and mounted on glass slides with Fluoromount-G® (SouthernBiotech™, Birmingham, Alabama, 0100-01). Slides were then visualized using an Olympus BX63 microscope (Olympus, Tokyo, Japan).
(§6) Immunofluorescence and cell number quantification for HBEC experiments: For total fluorescence quantification (i.e., ERBB2), all images were processed in the same manner with the same microscopy settings. To determine mean fluorescence the channel of interest was separated in ImageJ, and the mean gray value was measured for the field of view and normalized by the total number of cells. Cell counting was achieved by taking 40×images and manually counting all nuclei in a field of view (approximately 200-300). The number of cells also expressing the marker of interested were then counted and normalized by the total number of cells per field. For each experiment a biological n≥3 was used with at least 5 fields of view per well and at least 2 wells being counted in total per donor.

The subject of another assay is COPD HBECs. Put plainly: Induction of jamming in COPD HBECs.
Text: as §1
as §2, with “afterwards. […]” for “afterwards.”

The test system of assay [4] is control HBECs. Nature of the assay: Induced unjamming of control HBECs at air-liquid interface (live cell imaging, cell shape). The note with it: for ability to induce an unjammed state in control epithelia: control HBECs at ALI day 14.
Text: as §1, §2, §3, §4

Assay [5] has as its system control HBECs. Nature of the assay: Immunofluorescence of Ki67 and YAP in control HBECs. Here is the method: as §5, §6
Setting [6] is: control HBECs, 48 hours after treatment.

For the molecule `COc1cc2ncnc(Nc3cccc(Cl)c3)c2cc1OC` [AG1478, Tyrphostin AG-1478], the “induction of the UJT (jamming) in IPF epithelia” value (“induction of the UJT (jamming)” for short) in the assay on IPF HBECs [1] was “halted migration and induced a cobblestone appearance in the epithelia”. In addition, the “transcription of ERBB receptors, YAP target genes and MUC5B” value (shortened to “transcription of ERBB receptors”) with IPF HBECs [2] is “reduced the transcription of ERBB receptors, YAP target genes, and MUC5B nearly back to control levels”. Further, the YAP nuclear exclusion entry with IPF HBECs [3] is recorded as “results in YAP nuclear exclusion”. In addition, the “induction of jamming in COPD epithelia” value with COPD HBECs is reported as “not responsive to ERBB-YAP inhibition”.
On to `C#Cc1cccc(Nc2ncnc3cc(OCCOC)c(OCCOC)cc23)c1` [Erlotinib], for which the “induction of the UJT (jamming)” value in the assay on IPF HBECs [1] is “induces jamming in IPF epithelia”. Moreover, the “transcription of ERBB receptors” value in the assay with IPF HBECs [2] is on record as “decreases 738 ERBB-YAP target gene expression”. The YAP nuclear exclusion entry in the assay with IPF HBECs [3] is given as “results in YAP nuclear exclusion”.
Turning to `CNc1nc(-c2ccc3c(N)n[nH]c3c2)cc(N2C[C@@H](C(=O)NC3CCCCC3)CC[C@H]2C)n1` [GSK2334470], in the assay with IPF HBECs [1], the “induction of the UJT (jamming)” value is given as “induces jamming in IPF epithelia”. In addition, the YAP nuclear exclusion result in the assay with IPF HBECs [3] is “results in YAP nuclear exclusion”.
`CS(=O)(=O)CCNCc1ccc(-c2ccc3ncnc(Nc4ccc(OCc5cccc(F)c5)c(Cl)c4)c3c2)o1` [Lapatinib]: in the assay with IPF HBECs [1], the “induction of the UJT (jamming)” value is reported as “induces jamming in IPF epithelia”. Besides, the “transcription of ERBB receptors” value in the assay on IPF HBECs [2] is recorded as “decreases 738 ERBB-YAP target gene expression”. Further, the YAP nuclear exclusion result in the assay on IPF HBECs [3] was “results in YAP nuclear exclusion”.
As to `NC1(c2ccc(-c3nc4ccn5c(=O)[nH]nc5c4cc3-c3ccccc3)cc2)CCC1` [MK-2206], the “induction of the UJT (jamming)” value with IPF HBECs [1] is “did not induce the UJT”.
With `FC(F)(F)c1ccc(/C=C/c2nc(COc3ccc(CCCCn4ccnn4)cc3)co2)cc1` [Mubritinib], the “induction of the UJT (jamming)” value with IPF HBECs [1] is “induces jamming in IPF epithelia”. For the same molecule, the “transcription of ERBB receptors” value in the assay on IPF HBECs [2] is “decreases 738 ERBB-YAP target gene expression”. Also, in the assay with IPF HBECs [3], the YAP nuclear exclusion entry was “results in YAP nuclear exclusion”.
On to `NCC(=O)Nc1ccc(-n2nc(C(F)(F)F)cc2-c2ccc3c(ccc4ccccc43)c2)cc1` [OSU03012, OSU-03012], for which the “induction of the UJT (jamming)” value in the assay with IPF HBECs [1] is given as “induces jamming in IPF epithelia”. Further, the “transcription of ERBB receptors” value with IPF HBECs [2] is recorded as “decreases 738 ERBB-YAP target gene expression”. The YAP nuclear exclusion result in the assay on IPF HBECs [3] is “results in YAP nuclear exclusion”. Besides, the “induction of jamming in COPD epithelia” value in the assay on COPD HBECs was “not responsive to ERBB-YAP inhibition”.
For the molecule `CN1CCN(c2nc(C3=C(c4c[nH]c5ccccc45)C(=O)NC3=O)c3ccccc3n2)CC1` [Sotrastaurin], the “induction of the UJT (jamming)” value in the assay on IPF HBECs [1] is given as “did not induce the UJT”.
Regarding `CN1C(=O)c2sccc2N(C)c2nc(Nc3ccc(S(N)(=O)=O)cc3)ncc21` [XMU-MP-1], in the assay on control HBECs [4], the “ability to induce an unjammed state in control epithelia” value is reported as “had the ability to elicit an unjammed state”. Further, the “induction of unjammed state in mature monolayer” value in the assay on control HBECs [4] (control HBECs treated at ALI day 28) is “unjammed state was induced regardless of monolayer maturity”. For the same molecule, the “time at which migratory capacity of control epithelia begins to diminish” value in the assay with control HBECs [4] (treatment at day 14 of ALI) was ~36 h. The “cell type showing YAP nuclear localization” value with control HBECs [5] (control HBECs after treatment) is on record as “predominantly in multi-ciliated cells (FOXJ1+)”. In the assay on control HBECs [5] (setting [6]), the YAP nuclear localization result is given as “did lead to YAP nuclear localization” and the “proliferation (Ki67+)” value is “neither AREG nor XMU treatment resulted in increased proliferation”.
“EGF: High-affinity EGFR ligand, EGFR agonist (R&D Systems 263-EG) (NSDSECPLSHDGYCLHDGVCMYIEALDKYACNCVVGYIGERCQYRDLKWWELR; Epidermal growth factor; UniProt P01133 971-1023, looked up)”: the “ability to induce an unjammed state in control epithelia” value in the assay on control HBECs [4] is “only AREG treatment had the ability to induce an unjammed state”.
Same read-out and setting: the same measure for “TGFα: High-affinity EGFR ligand, EGFR agonist (R&D Systems 239-A-100)”: “only AREG treatment had the ability to induce an unjammed state”.
